Experimental data from patent publication US7718677B2, “Methods and compositions for reduction of side effects of therapeutic treatments” (priority 2007, dated 2010).
Several values for one entry are separate records, joined by “and”; a condition that tells them apart may be missing. Identical values can stand only once. Like-named read-outs stand apart in the source and are kept apart here. Marks after values point to notes of the source that are not given here.

What was measured:
[1] = system: Squirrel (Saimiri sciureus) monkeys with nigrostriatal damage; test: Levodopa-induced dyskinesias in MPTP-lesioned monkeys, nicotine in drinking solution before levodopa (Example 1); assay type: in vivo; details: for dyskinetic ratings 3 hours after the afternoon levodopa treatment: scale 0-4, mean ± SE
Description: Animals: Squirrel (Saimiri sciureus) monkeys (n=7) were purchased from World Wide Primates (Miami, Fla.). The animals weighed between 0.6-0.9 kg and were in mid to late adulthood as determined from their general appearance (dentition, fur, other). Female monkeys were used since older animals were available that may better model Parkinson's disease. The animals were placed in quarantine upon arrival, and maintained in a temperature-controlled room (27±3° C.) with a relative humidity>30%, under a 13/11-hour light/dark cycle. Monkey food chow and fruits/vegetables were provided once daily, with water provided ad libitum. The monkeys were housed in separate cages to allow for clear behavioral assessments. The animals were released from quarantine after 1 month and treatments initiated. All procedures conformed to the National Institutes of Health Guide for the Care and Use of Laboratory Animals and were approved by the Institutional Animal Care and Use Committee at the Parkinson's Institute.
(§1) 1-Methyl-4-phenyl-1,2,3,6-tetrahydropyridine (MPTP) administration: Prior to lesioning, the animals were allowed to acclimate to the colony and rated for parkinsonism as described (Langston et al. Ann Neurol. 2000; 47:S79-89). All values were within the normal range. The monkeys were then injected subcutaneously with 2.0 mg/kg MPTP (Sigma, St-Louis, Mo.) dissolved in saline. The animals were rated for parkinsonism 3-4 weeks after MPTP administration. The disability scores ranged from 0 (normal) to 28 for a severely parkinsonian animal. Animals were assessed for 1) spatial hypokinesia (reduction in use of the available cage space), 2) body bradykinesia (increased slowness in body movement), 3) left and 4) right manual dexterity, 5) balance, 6) freezing and 7) action tremor. If they were not parkinsonian, MPTP injection (1.0-2.0 mg/kg) was repeated from 2-5 times for total doses of 3.5 to 13.5 mg/kg. Despite multiple MPTP dosing, two of the animals were not stably parkinsonian.
Nicotine treatment: All monkeys (n=7) were then given a drinking solution for 3 weeks consisting of commercially available orange Gatorade® to mask nicotine's bitter taste (FIG. 1). The control group (n=4) was continued on Gatorade® only, while nicotine (free base) was added to the Gatorade of the treated group (n=3). Nicotine dosing was started at 50 μg/ml for 1 week, 150 μg/ml for 1 week, with the concentration increased by […] over the next few weeks, up to 650 μg/ml (FIG. 1).
(§2) Levodopa administration: Monkeys were administered levodopa/carbidopa (5 mg/kg and 1.25 mg/kg, respectively), prepared by crushing a tablet of Sinemet® CR 100/25 (DuPont Pharma) and dissolving it in water. This dose of levodopa is within the range of that prescribed to Parkinson's disease patients. The monkeys were gavaged twice daily at 3.5-hour intervals for 8 weeks at a time using a 5-day-on/2-day-off schedule (Hsu et al., J Pharmacol Exp Ther. 2004; 311:770-777). During levodopa treatment, the monkeys were given fruits in the morning and food pellets 3.5 hours after the afternoon levodopa dose to optimize gastrointestinal absorption.
(§3) Dyskinesias were rated from videotapes, as described (Hsu et al., J Pharmacol Exp Ther. 2004; 311:770-777). This included a one hour baseline period (no drugs) from ˜8:00-9:00 AM, followed by two 3.5-hour treatment periods with levodopa starting at ˜9:00 AM and ˜12:30 PM. Dyskinesias were rated for 2-minute periods at 30-minute intervals by two independent raters blinded to treatment. They were rated on a scale of 0 (no dyskinesias) to 4; a score of 1 was indicative of subtle dyskinesias that were not sustained; 2, mild dyskinesias that were sustained; 3, moderate dyskinesias that impaired the ability to remain stationary; 4, severe dyskinesias that were generalized and incapacitating.
Data analyses: The levodopa treatment protocol used in the present study involved a 5-day-on/2-day-off schedule.

[2] = system: levodopa-primed monkeys
Description: as §2, §3
(§4) Data analyses: The levodopa treatment protocol used in the present study involved a 5-day-on/2-day-off schedule. Parkinsonian ratings were done on Monday and Friday of each week, with the score averaged over the two days. Dyskinesias ratings were determined by averaging the scores on Wednesday and Thursday of each week. All values are expressed as the mean±SE of the indicated number of animals. Results were compared using paired t-tests or analysis of variance (ANOVA) followed by Bonferroni multiple comparison post hoc test, using Prism® program (GraphPad Software, Inc, San Diego, Calif.). A level of 0.05 was considered significant.
Materials and methods were the same as in example 1.
A crossover study, was then conducted, in which the animals originally receiving nicotine were given vehicle (n=3), while the vehicle-treated animals were now administered nicotine (n=4). Levodopa treatment was stopped. […] Monkeys that had previously received nicotine were placed on vehicle drinking water for the same time period. All monkeys were then treated with levodopa (5 mg/kg, twice daily 3.5 hours apart) for a subsequent 8-week period. Since both groups of monkeys had previously received levodopa, they were termed levodopa-primed.

[3] = system: MPTP-lesioned squirrel monkeys; test: Parkinsonism rating on or off levodopa in MPTP-lesioned monkeys; assay type: in vivo, Saimiri sciureus; details: for Parkinson Ratings Expt 1 / Parkinson Ratings Expt 2 (crossover): individual animals, scale 0-28; for Parkinson Ratings Mean ± SE (n): n=5
Description: as §1, §4
White bars indicate no nicotine treatment and black bars indicate nicotine treatment. Parkinsonism was evaluated immediately before the afternoon L-dopa dose and 1.5 to 2 hours after L-dopa treatment, when a maximal antiparkinsonian effect is anticipated. Two of the seven animals in the study were not parkinsonian, and therefore were not included in this analysis. Error bars are the means±standard error of five animals before and after crossover of nicotine treatment. **p<0.01, as compared with the same group with no L-dopa treatment by a Mann-Withney test.

[4] = nicotine in Gatorade up to 650 μg/ml
Description: Nicotine treatment: All monkeys (n=7) were then given a drinking solution for 3 weeks consisting of commercially available orange Gatorade® to mask nicotine's bitter taste (FIG. 1). The control group (n=4) was continued on Gatorade® only, while nicotine (free base) was added to the Gatorade of the treated group (n=3). Nicotine dosing was started at 50 μg/ml for 1 week, 150 μg/ml for 1 week, with the concentration increased by 150 μg increments/week over the next few weeks, up to 650 μg/ml (FIG. 1).

[5] = system: 6-hydroxydopamine-lesioned rats; details: ROTOMAX, AccuScan System; n=9; saccharin group 8.2+3.7, no difference
Description: Behavioral assessment of the lesion. As an index of nigrostriatal damage, the rats were tested for rotational behavior 3 and 4 weeks after lesioning. This was done using an automated behavioral measurement apparatus that has four cylindrical chambers (50 cm height×34 cm diameter) (ROTOMAX, AccuScan Instruments Inc. Columbus, Ohio, USA). A rat was placed in one of the chambers for 30 min for acclimatization, after which time amphetamine (4 mg/kg ip) was administered as previously described (Visanji et al., 2006, Neuropharmacology 51:506-516). […] The rats were tested a second time one week later and the data from the two testing periods pooled.

[6] = on levodopa treatment, 1.5-2 hours after dosing

CN1CCCC1c1cccnc1 (stereo not shown) [Nicotine, S-3-(1-methyl-2-pyrrolidinyl)pyridine]
total dyskinesias (area under the curve of the time course) ([1]; all time points vs monkeys not receiving nicotine): significant decrease
decline in levodopa-induced dyskinesias ([1]; animals pretreated with nicotine, levodopa naïve monkeys): ~60%
levodopa-induced dyskinesias over the course of the day (time course) ([1]; nicotine up to 650 μg/ml in drinking solution, vs monkeys not receiving nicotine, entire 8-week period): significantly reduced
peak dyskinesias (maximal dyskinetic score during the morning or afternoon) ([1]; throughout the 8-week levodopa treatment vs control): decreased
dyskinetic ratings 3 hours after the afternoon levodopa treatment ([1]; week 2/3 of levodopa treatment, levodopa/carbidopa 5/1.25 mg/kg twice daily): 0.3 ± 0.3
dyskinetic ratings 3 hours after the afternoon levodopa treatment ([1]; week 4 of levodopa treatment): 0*
dyskinetic ratings 3 hours after the afternoon levodopa treatment ([1]; week 6 of levodopa treatment): 0*
dyskinetic ratings 3 hours after the afternoon levodopa treatment ([1]; week 8 of levodopa treatment): 0.2 ± 0.2
total dyskinetic scores after removal of nicotine ([2]; animals removed from nicotine treatment, week 4, 6 and 8 of levodopa treatment): significantly enhanced
reduction of dyskinesias ([2]; levodopa-primed monkeys): ~35%
duration of dyskinesias ([2]; levodopa-primed monkeys switched to nicotine): decrease
peak dyskinesias ([2]; levodopa-primed monkeys switched to nicotine, last 4 weeks of levodopa treatment): significantly reduced
total dyskinesias ([2]; levodopa-primed monkeys switched to nicotine, vs same animal before crossover, all time points, paired t-tests): significantly reduced
Parkinson Ratings Expt 1 ([3]; no levodopa treatment): 5.2 and 6.6
Parkinson Ratings Expt 2 (crossover) ([3]; no levodopa treatment): 4.1 and 6.4 and 5.9
Parkinson Ratings Mean ± SE (n) ([3]; no levodopa treatment): 5.6 ± 0.5 (5)
Parkinson Ratings Expt 1 [3, 6]: 1.7 and 1.5
Parkinson Ratings Expt 2 (crossover) [3, 6]: 0.8 (2×) and 0.4
Parkinson Ratings Mean ± SE (n) [3, 6]: 1.0 ± 0.2 (5)
effect on parkinsonism ([3]; on or off levodopa treatment): did not affect
effects on body weight or fluid intake [4]: no significant effects
extent of turning [5]: 8.4+6.7
body weight (minipump 2 mg/kg/d nicotine vs vehicle): similar
fluid intake (nicotine in saccharin drinking solution vs vehicle-treated): drank less
body weight (nicotine via drinking water, continued dosing, rats appeared healthy): small difference
